For assay [1], the target named is T1, mMC4R (Mus musculus, UniProt P56450). Type of assay: cell-based.
The target of assay [2] is T2, mMC1R (Mus musculus, UniProt Q01727). Nature of the assay: cAMP based β-galactosidase reporter assay, agonist activity at mMC1R. The format is cell-based.
The target of assay [3] is T3, mMC3R (Mus musculus, UniProt P33033). Type of assay: cell-based.
The target of assay [4] is T3, mMC3R. The following applies: cited from earlier work.
The target of assay [5] is T1, mMC4R. Particulars: cited from earlier work; for Ki: read-out: mMC4R Ki, Ki=10^-pA2, previously reported values.
In assay [6] the target is mMC5R (Mus musculus, UniProt P41149). The following applies: read-out: mMC5R Agonist EC50; previously reported values; cited from earlier work.
The target in assay [7] is T2, mMC1R. The following applies: read-out: mMC1R Agonist EC50; previously reported values; cited from earlier work.
Assay [8] has as its target mMC4R (Mus musculus) (UniProt P56450). Nature of the assay: Schild analysis. Particulars: cited from earlier work.
The target in assay [9] is mMC3R (Mus musculus) (UniProt P33033). The assay is described as follows: Schild analysis. Particulars: cited from earlier work.
The target in assay [10] is T4, mMC3R (Mus musculus, UniProt P33033).
T4 chain: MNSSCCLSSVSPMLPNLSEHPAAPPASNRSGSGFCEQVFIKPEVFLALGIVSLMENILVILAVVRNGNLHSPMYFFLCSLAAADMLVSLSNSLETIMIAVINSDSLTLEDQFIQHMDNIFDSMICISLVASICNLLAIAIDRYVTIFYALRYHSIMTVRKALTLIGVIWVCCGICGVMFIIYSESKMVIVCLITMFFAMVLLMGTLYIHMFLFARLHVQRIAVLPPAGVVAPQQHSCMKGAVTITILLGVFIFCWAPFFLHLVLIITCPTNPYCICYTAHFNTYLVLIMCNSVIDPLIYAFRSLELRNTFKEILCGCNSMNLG
The assay is described as follows: Schild analysis.

The target of assay [11] is T5, mMC4R (Mus musculus, UniProt P56450).
T5 chain: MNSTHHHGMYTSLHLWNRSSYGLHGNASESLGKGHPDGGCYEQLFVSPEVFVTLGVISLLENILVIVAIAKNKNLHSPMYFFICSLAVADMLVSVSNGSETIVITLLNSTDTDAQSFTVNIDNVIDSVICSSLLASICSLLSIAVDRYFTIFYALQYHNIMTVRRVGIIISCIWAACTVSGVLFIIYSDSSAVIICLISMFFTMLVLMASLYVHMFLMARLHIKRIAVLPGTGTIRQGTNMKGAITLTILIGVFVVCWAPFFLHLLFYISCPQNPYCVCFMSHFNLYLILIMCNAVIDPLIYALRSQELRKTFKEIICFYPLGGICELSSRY
The assay is described as follows: Schild analysis.

Read-outs that look alike come from different tables or passages of the source. Where a SMILES comes first, the peptide text is derived from it. Bridges are numbered along the chain shown (N, C = ends). Where no end group is shown, it is not given here. [ ]: non-standard residue; d: D form. Bip = N[C@@H](Cc1ccc(-c2ccccc2)cc1)C(=O)O

T2 sequence (Q01727 whole entry): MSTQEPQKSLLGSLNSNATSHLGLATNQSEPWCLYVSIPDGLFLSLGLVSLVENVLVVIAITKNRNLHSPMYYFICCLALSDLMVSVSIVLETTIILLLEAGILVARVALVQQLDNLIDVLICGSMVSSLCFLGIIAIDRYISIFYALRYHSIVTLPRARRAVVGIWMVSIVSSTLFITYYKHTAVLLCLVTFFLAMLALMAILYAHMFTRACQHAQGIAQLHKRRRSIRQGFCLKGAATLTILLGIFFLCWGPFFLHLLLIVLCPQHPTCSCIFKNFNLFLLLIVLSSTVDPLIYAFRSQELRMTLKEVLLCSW
Chain of mMC5R (P41149 whole entry): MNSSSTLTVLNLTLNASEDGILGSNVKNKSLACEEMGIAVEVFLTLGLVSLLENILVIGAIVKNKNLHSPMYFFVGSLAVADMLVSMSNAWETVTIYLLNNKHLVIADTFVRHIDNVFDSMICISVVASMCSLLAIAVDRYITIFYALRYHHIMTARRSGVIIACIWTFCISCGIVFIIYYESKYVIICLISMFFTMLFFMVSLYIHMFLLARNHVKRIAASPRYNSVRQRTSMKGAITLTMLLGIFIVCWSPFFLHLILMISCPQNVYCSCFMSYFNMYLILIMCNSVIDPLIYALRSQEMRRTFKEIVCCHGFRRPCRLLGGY

On to `C[C@@H]1NC(=O)[C@H](CC(N)=O)NC(=O)[C@H](Cc2ccccc2)NC(=O)[C@H](Cc2ccc(-c3ccccc3)cc2)NC(=O)[C@H](CCCNC(=N)N)NC(=O)[C@@H]2CCCN2C(=O)[C@H]2CCCN2C(=O)[C@H](Cc2ccccc2)NC1=O` [Peptide 7, c[Pro-Arg-Bip-Phe-Asn-Ala-Phe-DPro]] (cyclo(R[Bip]FNAF[dP]P)), for which the “fold decreased antagonist potency at the mMC4R compared to 6” value in assay [1] is given as 8 fold. Also, the “fold more potent agonist at the mMC1R compared to 6” value in assay [2] came to 5 fold.

`C[C@@H]1NC(=O)[C@H](CC(N)=O)NC(=O)[C@H](Cc2ccccc2)NC(=O)[C@@H]2Cc3ccccc3CN2C(=O)[C@H](CCCNC(=N)N)NC(=O)[C@@H]2CCCN2C(=O)[C@H]2CCCN2C(=O)[C@H](Cc2ccccc2)NC1=O` [Peptide 8, c[Pro-Arg-Tic-Phe-Asn-Ala-Phe-DPro]]: in [1], the “no activity at the mMC4R up to (concentration)” value was above 100 µM. Further, in assay [3], the “no activity at the mMC3R up to (concentration)” value (shortened to “no activity at the mMC3R up”) is above 100 µM.

As for `C[C@@H]1NC(=O)[C@H](CC(N)=O)NC(=O)[C@H](Cc2ccccc2)NC(=O)[C@H](CCc2ccccc2)NC(=O)[C@H](CCCNC(=N)N)NC(=O)[C@@H]2CCCN2C(=O)[C@H]2CCCN2C(=O)[C@H](Cc2ccccc2)NC1=O` [Peptide 10, c[Pro-Arg-hPhe-Phe-Asn-Ala-Phe-DPro]], in assay [1], the “fold decreased antagonist potency at the mMC4R compared to 6” value turned out to be 5 fold.

Regarding `C[C@@H]1NC(=O)[C@H](CC(N)=O)NC(=O)[C@H](Cc2ccccc2)NC(=O)[C@H](Cc2ccc3ccccc3c2)NC(=O)[C@H](CCCNC(=N)N)NC(=O)[C@@H]2CCCN2C(=O)[C@H]2CCCN2C(=O)[C@H](Cc2ccccc2)NC1=O` [Peptide 13, c [Pro-Arg-Nal(2′)-Phe-Asn-Ala-Phe-DPro]], the “fold decreased antagonist potency at the mMC4R compared to 6” value in assay [1] was 5 fold.

For `C[C@@H]1NC(=O)[C@H](CC(N)=O)NC(=O)[C@H](Cc2ccc(-c3ccccc3)cc2)NC(=O)[C@H](Cc2ccccc2)NC(=O)[C@H](CCCNC(=N)N)NC(=O)[C@@H]2CCCN2C(=O)[C@H]2CCCN2C(=O)[C@H](Cc2ccccc2)NC1=O` [Peptide 14, c[Pro-Arg-Phe-Bip-Asn-Ala-Phe-DPro]], the “fold decreased antagonist potency at the mMC4R compared to 6” value in assay [1] was determined as 8 fold. In addition, the “no activity at the mMC3R up” value in assay [3] was above 100 µM. Further, in assay [2], the “fold more potent agonist at the mMC1R compared to 6” value was 10 fold.

As to `C[C@@H]1NC(=O)[C@H](CC(N)=O)NC(=O)[C@@H]2Cc3ccccc3CN2C(=O)[C@H](Cc2ccccc2)NC(=O)[C@H](CCCNC(=N)N)NC(=O)[C@@H]2CCCN2C(=O)[C@H]2CCCN2C(=O)[C@H](Cc2ccccc2)NC1=O` [Peptide 15, c[Pro-Arg-Phe-Tic-Asn-Ala-Phe-DPro]], in assay [1], the “no activity at the mMC4R up to (concentration)” value was above 100 µM. For the same molecule, the “no activity at the mMC3R up” value in assay [3] was above 100 µM.

Regarding `C[C@@H]1NC(=O)[C@H](CC(N)=O)NC(=O)[C@H](c2ccccc2)NC(=O)[C@H](Cc2ccccc2)NC(=O)[C@H](CCCNC(=N)N)NC(=O)[C@@H]2CCCN2C(=O)[C@H]2CCCN2C(=O)[C@H](Cc2ccccc2)NC1=O` [Peptide 16, c[Pro-Arg-Phe-Phg-Asn-Ala-Phe-DPro]], in assay [1], the “fold decreased antagonist potency at the mMC4R compared to 6” value turned out to be 65 fold. Moreover, the “no activity at the mMC3R up” value in [3] was above 100 µM. Besides, the “fold decreased potency at the mMC1R compared to 6” value in [2] stood at 4 fold.

`C[C@@H]1NC(=O)[C@H](CC(N)=O)NC(=O)[C@H](Cc2cccc3ccccc23)NC(=O)[C@H](Cc2ccccc2)NC(=O)[C@H](CCCNC(=N)N)NC(=O)[C@@H]2CCCN2C(=O)[C@H]2CCCN2C(=O)[C@H](Cc2ccccc2)NC1=O` [Peptide 19, c[Pro-Arg-Phe-Nal(1′)-Asn-Ala-Phe-DPro]]: the “fold decreased antagonist potency at the mMC3R compared to 6” value in assay [3] (compared to 6) was 6 fold.

For the molecule `C[C@@H]1NC(=O)[C@H](CC(N)=O)NC(=O)[C@H](Cc2ccc3ccccc3c2)NC(=O)[C@H](Cc2ccccc2)NC(=O)[C@H](CCCNC(=N)N)NC(=O)[C@@H]2CCCN2C(=O)[C@H]2CCCN2C(=O)[C@H](Cc2ccccc2)NC1=O` [Peptide 20, c[Pro-Arg-Phe-Nal(2′)-Asn-Ala-Phe-DPro]], in [3], the “no activity at the mMC3R up” value is above 100 µM.

`C[C@@H]1NC(=O)CNC(=O)[C@H](Cc2ccccc2)NC(=O)[C@H](Cc2ccccc2)NC(=O)[C@H](CCCNC(=N)N)NC(=O)[C@@H]2CCCN2C(=O)[C@H]2CCCN2C(=O)[C@H](Cc2ccccc2)NC1=O` [Peptide 21, c[Pro-Arg-Phe-Phe-Gly-Ala-Phe-DPro]]: the “fold increased antagonist potency at the mMC4R compared to 6” value in assay [1] is listed as 5 fold. The “fold increased antagonist potency at the mMC3R compared to 6” value in [3] (compared to 6) was 16 fold.

Consider `C[C@@H]1NC(=O)[C@H](CCCCN)NC(=O)[C@H](Cc2ccccc2)NC(=O)[C@H](Cc2ccccc2)NC(=O)[C@H](CCCNC(=N)N)NC(=O)[C@@H]2CCCN2C(=O)[C@H]2CCCN2C(=O)[C@H](Cc2ccccc2)NC1=O` [Peptide 25, c[Pro-Arg-Phe-Phe-Lys-Ala-Phe-DPro]], for which, in [1], the “fold increased antagonist potency at the mMC4R compared to 6” value was determined as 4 fold.

As for `C[C@@H]1NC(=O)[C@H](CCCNC(=N)N)NC(=O)[C@H](Cc2ccccc2)NC(=O)[C@H](Cc2ccccc2)NC(=O)[C@H](CCCNC(=N)N)NC(=O)[C@@H]2CCCN2C(=O)[C@H]2CCCN2C(=O)[C@H](Cc2ccccc2)NC1=O` [Peptide 26, c[Pro-Arg-Phe-Phe-Arg-Ala-Phe-DPro]] (cyclo(RFFRAF[dP]P)), in assay [1], the “fold increased antagonist potency at the mMC4R compared to 6” value stood at 5 fold.

With “TAYCRFFNAFCYAR-NH2 (disulfide 4-11) [hAGRP(107-120)]”, in assay [4], the “mMC3R antagonist pA2” value was 6.1. Further, in [5], the “mMC4R antagonist pA2” value is 6.6.

In the case of “Tyr-c[Cys-Arg-Phe-Phe-Asn-Ala-Phe-Cys]-Tyr (YCRFFNAFCY; bridge 2-9; not fully specified (bridges)) [hAGRP (109-118)]”, the results for the EC50 in assay [6] and in assay [7] were above 100000 nM and 5100 ± 3000 nM, respectively. In addition, the Ki in assay [5] was 160 nM.

For the molecule “YCRFFNAFCY (disulfide 2-9) [hAGRP (109-118)]”, the “mMC4R antagonist pA2” value in assay [5] is 6.8; in assay [5] (previously reported values) it was 6.8±0.2.

As to “hAGRP (87–132): C-terminal domain of human Agouti-related protein, stabilized by five disulfide bonds”, the results for the “mMC3R antagonist pA2” value in [4] and in [4] (previously reported values) were 8.9 and 8.9±0.2, respectively. In addition, the EC50 in assay [6] and in [7] was above 100000 nM throughout. In addition, the figures for the “mMC4R antagonist pA2” value in assay [5] and in assay [5] (previously reported values) were 9.4 and 9.4±1.0, respectively. In addition, in assay [5], the Ki was 0.4 nM.

As to “hAGRP(87-132) 87-132 (from UniProt O00253)”, the Ki in assay [8] is 0.4 nM; in [9] it was 1.3 nM.

In the case of hAGRP(109-118), in assay [8], the Ki is 160 nM.

Take “miniAGRP (87-120): engineered minimized derivative of AGRP(87-132) with 4 disulfide bonds and the C-terminal 12 residues removed (CVRLHESCLGQQVPCCDPAATCYCRFFNAFCYCR)”: the EC50 in [6] and in assay [7] was above 100000 nM throughout.

For the molecule “miniAGRP(87-120) 87-120 (from UniProt O00253)”, the Ki in [8] is 3.2 nM; in assay [9], 7.9 nM.

cyclo(PRFFRAF[dP]) [peptide 26]: the figures for the Ki in [10] and in [11] were 200 nM and 4 nM, respectively.

For the molecule cyclo(PRFFKAF[dP]) [peptide 25], the values for the Ki in assay [10] and in assay [11] were 100 nM and 5 nM, respectively.

In turn, cyclo(PRFFGAF[dP]) [peptide 21] showed a Ki in assay [11] of 4 nM.

B1: peptide 5 (peptide)
chain: cyclo(PYTRFFNAFTY[dP])
SMILES: C[C@@H]1NC(=O)[C@H](CC(N)=O)NC(=O)[C@H](Cc2ccccc2)NC(=O)[C@H](Cc2ccccc2)NC(=O)[C@H](CCCNC(=N)N)NC(=O)[C@H]([C@@H](C)O)NC(=O)[C@H](Cc2ccc(O)cc2)NC(=O)[C@@H]2CCCN2C(=O)[C@H]2CCCN2C(=O)[C@H](Cc2ccc(O)cc2)NC(=O)[C@H]([C@@H](C)O)NC(=O)[C@H](Cc2ccccc2)NC1=O
B1: the Ki in assay [10] came to 1300 nM.
